Laboratory results published in US9695155B2, “Herbicidal substituted pyrimidinyloxy benzene compounds” (E. I. DU PONT DE NEMOURS AND COMPANY, priority 2013, dated 2017).

Legend:
corn = test: Test A postemergence; type: in vivo, Zea mays
In short: (§1)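 Greenhouse pot test, loam/sand soil. Formulation: non-phytotoxic solvent mix plus surfactant. Pre: directed spray onto soil after sowing. Post: plants at 1–2 leaf, 2–10 cm. Rated visually vs untreated controls at ~10 d, 0 (no effect) to 100 (complete control).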

ragweed = test: Test C postemergence; type: in vivo, Ambrosia elatior; conditions: for Plant response rating (0 to 100), Ragweed: postemergence; for Plant response rating, Ragweed: Postemergence, scale 0 to 100 (0 no effect, 100 complete control)
In short: (§2)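 Visual ratings on a 0–100 scale (100 = complete control) were made versus untreated controls after 13–15 greenhouse days. Chemicals in a surfactant-containing non-phytotoxic solvent were applied either preemergence to seeds in loam–sand soil or postemergence to 1- to 4-leaf plants 2–18 cm tall.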

pigweed [1] = test: Test C postemergence; type: in vivo, Amaranthus retroflexus; conditions: for Plant response rating (0 to 100), Pigweed: postemergence; for Plant response rating, Pigweed: Postemergence, scale 0 to 100 (0 no effect, 100 complete control)
In short: as §2

galium = test: Test C postemergence; type: in vivo, Galium aparine; conditions: for Plant response rating (0 to 100), Galium: postemergence; for Plant response rating, Galium: Postemergence, scale 0 to 100 (0 no effect, 100 complete control)
In short: as §2

velvetleaf [2] = test: Test C postemergence; type: in vivo, Abutilon theophrasti; conditions: for Plant response rating (0 to 100), Velvetleaf: postemergence; for Plant response rating, Velvetleaf: Postemergence, scale 0 to 100 (0 no effect, 100 complete control)
In short: as §2

pigweed [3] = test: Test A preemergence; type: in vivo, Amaranthus retroflexus; conditions: for Plant response rating, Pigweed: 125 g ai/ha, 0 to 100 scale where 0 is no effect and 100 is complete control; for Pigweed plant response rating: 500 g ai/ha, 0 to 100 scale, 0 no effect, 100 complete control, approx. 10 days
In short: as §1

oilseed rape = test: Test C postemergence; type: in vivo, Brassica napus; conditions: for Plant response rating (0 to 100), Oilseed Rape: postemergence; for Plant response rating, Oilseed Rape: Postemergence, scale 0 to 100 (0 no effect, 100 complete control)
In short: as §2

large (Lg) crabgrass = test: Test A preemergence; type: in vivo, Digitaria sanguinalis; conditions: for Plant response rating, Crabgrass, Large: 125 g ai/ha, 0 to 100 scale where 0 is no effect and 100 is complete control; for Crabgrass, Large plant response rating: 500 g ai/ha, 0 to 100 scale, 0 no effect, 100 complete control, approx. 10 days
In short: as §1

velvetleaf [4] = test: Test A preemergence; type: in vivo, Abutilon theophrasti; conditions: for Plant response rating, Velvetleaf: 125 g ai/ha, 0 to 100 scale where 0 is no effect and 100 is complete control; for Velvetleaf plant response rating: 500 g ai/ha, 0 to 100 scale, 0 no effect, 100 complete control, approx. 10 days
In short: as §1

morningglory = test: Test A preemergence; type: in vivo, Ipomoea spp.; conditions: for Plant response rating, Morningglory: 125 g ai/ha, 0 to 100 scale where 0 is no effect and 100 is complete control; for Morningglory plant response rating: 500 g ai/ha, 0 to 100 scale, 0 no effect, 100 complete control, approx. 10 days
In short: as §1

wheat = test: Test A postemergence; type: in vivo, Triticum aestivum
In short: as §1

[5] = 125 g ai/ha, 0 to 100 scale where 0 is no effect and 100 is complete control
[6] = 500 g ai/ha, 0 to 100 scale, 0 no effect, 100 complete control

Q: For `N#Cc1cccc(Oc2ncc(Cl)cn2)c1-n1cnc(Br)c1` [Compound 74], which “Plant response rating, Corn” value (corn; [5]) is on record?
A: 30

Q: What about the “Plant response rating, Corn” value (corn; [6]) of the same compound?
A: 70

Q: And the “Plant response rating (0 to 100), Ragweed” value (ragweed; 125 g ai/ha)?
A: 40

Q: And the “Plant response rating (0 to 100), Ragweed” value (ragweed; 250 g ai/ha)?
A: 60

Q: And the “Plant response rating, Ragweed” value (ragweed; 31 g ai/ha, 13 to 15 days)?
A: 40

Q: And the “Plant response rating, Ragweed” value (ragweed; 62 g ai/ha)?
A: 40

Q: What about the “Plant response rating (0 to 100), Pigweed” value (pigweed [1]; 125 g ai/ha) of the same compound?
A: 65

Q: And the “Plant response rating (0 to 100), Pigweed” value (pigweed [1]; 250 g ai/ha)?
A: 80

Q: And the “Plant response rating, Pigweed” value (pigweed [1]; 31 g ai/ha, 13 to 15 days)?
A: 40

Q: What about the “Plant response rating, Pigweed” value (pigweed [1]; 62 g ai/ha) of the same compound?
A: 60

Q: And the “Plant response rating (0 to 100), Galium” value (galium; 125 g ai/ha)?
A: 65

Q: What about the “Plant response rating (0 to 100), Galium” value (galium; 250 g ai/ha) of the same compound?
A: 65

Q: What about the “Plant response rating, Galium” value (galium; 31 g ai/ha, 13 to 15 days) of the same compound?
A: 40

Q: What about the “Plant response rating, Galium” value (galium; 62 g ai/ha) of the same compound?
A: 55

Q: And the “Plant response rating (0 to 100), Velvetleaf” value (velvetleaf [2]; 125 g ai/ha)?
A: 50

Q: And the “Plant response rating (0 to 100), Velvetleaf” value (velvetleaf [2]; 250 g ai/ha)?
A: 65

Q: What about the “Plant response rating, Velvetleaf” value (velvetleaf [2]; 31 g ai/ha, 13 to 15 days) of the same compound?
A: 30

Q: And the “Plant response rating, Velvetleaf” value (velvetleaf [2]; 62 g ai/ha)?
A: 35

Q: And the “Plant response rating, Pigweed” value (pigweed [3])?
A: 100

Q: What about the “Pigweed plant response rating” value (pigweed [3]) of the same compound?
A: 100

Q: What about the “Plant response rating (0 to 100), Oilseed Rape” value (oilseed rape; 125 g ai/ha) of the same compound?
A: 40

Q: What about the “Plant response rating (0 to 100), Oilseed Rape” value (oilseed rape; 250 g ai/ha) of the same compound?
A: 65

Q: And the “Plant response rating, Oilseed Rape” value (oilseed rape; 31 g ai/ha, 13 to 15 days)?
A: 35

Q: And the “Plant response rating, Oilseed Rape” value (oilseed rape; 62 g ai/ha)?
A: 40

Q: What about the “Plant response rating, Crabgrass, Large” value (large (Lg) crabgrass) of the same compound?
A: 100

Q: And the “Crabgrass, Large plant response rating” value (large (Lg) crabgrass)?
A: 100

Q: And the “Plant response rating, Velvetleaf” value (velvetleaf [4])?
A: 70

Q: And the “Velvetleaf plant response rating” value (velvetleaf [4])?
A: 100

Q: And the “Plant response rating, Morningglory” value (morningglory)?
A: 70

Q: What about the “Morningglory plant response rating” value (morningglory) of the same compound?
A: 100

Q: And the “Plant response rating, Wheat” value (wheat; [5])?
A: 0

Q: What about the “Plant response rating, Wheat” value (wheat; 500 g ai/ha, 0 to 100 scale where 0 is no effect and 100 is complete control) of the same compound?
A: 50

Q: For `N#Cc1cccc(Oc2ncc(F)cn2)c1-n1cc(Br)cn1` [Compound 62], which “Plant response rating, Corn” value (corn; [5]) is on record?
A: 70

Q: And the “Plant response rating, Corn” value (corn; [6])?
A: 90

Q: And the “Plant response rating (0 to 100), Ragweed” value (ragweed; 125 g ai/ha)?
A: 50

Q: And the “Plant response rating (0 to 100), Ragweed” value (ragweed; 250 g ai/ha)?
A: 50

Q: What about the “Plant response rating, Ragweed” value (ragweed; 31 g ai/ha, 13 to 15 days) of the same compound?
A: 40

Q: And the “Plant response rating, Ragweed” value (ragweed; 62 g ai/ha)?
A: 40

Q: And the “Plant response rating (0 to 100), Pigweed” value (pigweed [1]; 125 g ai/ha)?
A: 75

Q: And the “Plant response rating (0 to 100), Pigweed” value (pigweed [1]; 250 g ai/ha)?
A: 80

Q: And the “Plant response rating, Pigweed” value (pigweed [1]; 31 g ai/ha, 13 to 15 days)?
A: 50

Q: And the “Plant response rating, Pigweed” value (pigweed [1]; 62 g ai/ha)?
A: 65

Q: And the “Plant response rating (0 to 100), Galium” value (galium; 125 g ai/ha)?
A: 80

Q: What about the “Plant response rating (0 to 100), Galium” value (galium; 250 g ai/ha) of the same compound?
A: 95

Q: And the “Plant response rating, Galium” value (galium; 31 g ai/ha, 13 to 15 days)?
A: 65

Q: And the “Plant response rating, Galium” value (galium; 62 g ai/ha)?
A: 65

Q: What about the “Plant response rating (0 to 100), Velvetleaf” value (velvetleaf [2]; 125 g ai/ha) of the same compound?
A: 75

Q: And the “Plant response rating (0 to 100), Velvetleaf” value (velvetleaf [2]; 250 g ai/ha)?
A: 85

Q: What about the “Plant response rating, Velvetleaf” value (velvetleaf [2]; 31 g ai/ha, 13 to 15 days) of the same compound?
A: 20

Q: What about the “Plant response rating, Velvetleaf” value (velvetleaf [2]; 62 g ai/ha) of the same compound?
A: 20

Q: What about the “Plant response rating, Pigweed” value (pigweed [3]) of the same compound?
A: 100

Q: And the “Pigweed plant response rating” value (pigweed [3])?
A: 100

Q: And the “Plant response rating (0 to 100), Oilseed Rape” value (oilseed rape; 125 g ai/ha)?
A: 60

Q: What about the “Plant response rating (0 to 100), Oilseed Rape” value (oilseed rape; 250 g ai/ha) of the same compound?
A: 75

Q: And the “Plant response rating, Oilseed Rape” value (oilseed rape; 31 g ai/ha, 13 to 15 days)?
A: 20

Q: What about the “Plant response rating, Oilseed Rape” value (oilseed rape; 62 g ai/ha) of the same compound?
A: 20

Q: What about the “Plant response rating, Crabgrass, Large” value (large (Lg) crabgrass) of the same compound?
A: 90

Q: And the “Crabgrass, Large plant response rating” value (large (Lg) crabgrass)?
A: 100

Q: What about the “Plant response rating, Velvetleaf” value (velvetleaf [4]) of the same compound?
A: 50

Q: What about the “Velvetleaf plant response rating” value (velvetleaf [4]) of the same compound?
A: 100

Q: And the “Plant response rating, Morningglory” value (morningglory)?
A: 0

Q: What about the “Morningglory plant response rating” value (morningglory) of the same compound?
A: 90

Q: What about the “Plant response rating, Wheat” value (wheat; [5]) of the same compound?
A: 20

Q: What about the “Plant response rating, Wheat” value (wheat; [6]) of the same compound?
A: 100
